These results are taken from US20240041859A1, “METHODS OF TREATING AND PREVENTING KIDNEY DISEASE” (Washington University, priority 2020, published 2024).

As usually defined, the IC50 is the point on the concentration scale where inhibition reaches its midpoint.

Assay [1] concerns PKD1^RC/RC mice. Kind of assay: slow-onset ADPKD mouse model, five-month treatment from six months of age. It counts as in vivo. The text has this: To test the inhibitors, a slow-onset mouse model of ADPKD was needed that would allow for an extended period of time to treat these mice with the centrosome clustering inhibitors. The widely used slow-onset ADPKD model called the PKD1^RC/RC mouse (Hopp et al, JCI, 2012) was chosen for the small molecule inhibitor tests. These mice develop cysts slowly, such that kidney size increases around 6 months of age, and kidney function declines—as indicated by elevated blood-urea nitrogen (BUN) levels—around 9 months of age. The mice also show extensive cystogenesis as they age. […] Thus, this model was ideal for testing the centrosome clustering inhibitors. Using the slow-onset ADPKD model, the optimal effective time-course for inhibition of centrosome clustering using CCB02 and PJ-34 can be determined. Example 1 describes treatment at timepoints (e.g., beginning at six months of age, beginning at nine months, and up to eleven months of age) and for periods of time (e.g., every other day for sixty days or two months, every two days for five months). PKD1^RC/RC mice were treated with the inhibitors beginning at six months of age—at a stage when their kidneys have yet to dramatically increase in size and show functional decline (see e.g., FIG. 8). Centrosome clustering inhibitor CCB02 was administered by gavage every two days for a total of five months. Also included in the analysis was the only FDA-approved drug for ADPKD, tolvaptan. […] Blood and urine were collected at one-month intervals to monitor kidney function (see e.g., FIG. 8).

The conditions of assay [2]: annually; cited from earlier work.
For a further assay, the system named is wild-type (HK2) cells. Kind of assay: centrosome clustering inhibitors on wild-type cells. It counts as cell-based. The text has this: (§1) Since this approach worked in ADPKD cells, mouse models were subsequently used to test the efficacy of the inhibitors in vivo.
The next assay concerns pkd1-null (WT9-12) cells. Kind of assay: centrosome clustering inhibitors on ADPKD cell line. It counts as cell-based. The conditions noted are these: for mitotic progression / spindle assembly checkpoint (SAC) and cell death of cells with CA: cells with CA; for centrosome clustering in cells with CA: pkd1-null (WT9-12) cells.
Description: as §1

Assay [3] deals with PKD1^RC/RC mice. The assay is described as follows: slow-onset ADPKD mouse model, sixty-day treatment followed by three-month washout. The class given is in vivo. The source says:
To test the inhibitors, a slow-onset mouse model of ADPKD was needed that would allow for an extended period of time to treat these mice with the centrosome clustering inhibitors. The widely used slow-onset ADPKD model called the PKD1^RC/RC mouse (Hopp et al, JCI, 2012) was chosen for the small molecule inhibitor tests. These mice develop cysts slowly, such that kidney size increases around 6 months of age, and kidney function declines—as indicated by elevated blood-urea nitrogen (BUN) levels—around 9 months of age. The mice also show extensive cystogenesis as they age. […] Thus, this model was ideal for testing the centrosome clustering inhibitors. Using the slow-onset ADPKD model, the optimal effective time-course for inhibition of centrosome clustering using CCB02 and PJ-34 can be determined. Example 1 describes treatment at timepoints (e.g., beginning at six months of age, beginning at nine months, and up to eleven months of age) and for periods of time (e.g., every other day for sixty days or two months, every two days for five months). […] PKD1^RC/RC mice were administered centrosome clustering inhibitor CCB02 beginning at nine months and up to eleven months of age (see e.g., FIG. 12A). CCB02 was administered by gavage every other day for sixty days (see e.g., FIG. 8). The treatment was arrested for three months, and animals were monitored for three additional months to determine if cysts returned once the compounds are no longer administered.

In the next assay the test system is CPAP-tubulin interaction. The note with it: binding to tubulin, competing for the CPAP binding site of P-tubulin; cited from earlier work.
[4] abbreviates: five months treatment vs two-month scheme.

In the case of `Cc1ccccc1C(=O)Nc1ccc(C(=O)N2CCCC(O)c3cc(Cl)ccc32)c(C)c1` (centres unmarked) [tolvaptan], the fibrosis markers entry in the assay with PKD1^RC/RC mice [1] (five months treatment) is “significant reduction in fibrosis markers”. Further, the “reduction of the rate of decline in renal function” value in assay [2] was 2%-3%.
With `CN(C)CC(=O)Nc1ccc2[nH]c(=O)c3ccccc3c2c1.Cl` [PJ-34], in the assay on wild-type (HK2) cells, the “normal mitotic spindle formation in cells with normal centrosome number” value is recorded as “not impacting normal mitotic spindle formation”. In the assay with pkd1-null (WT9-12) cells, the mitotic progression entry was “delay in mitotic progression”; the “spindle assembly checkpoint (SAC) and cell death of cells with CA” value was “activation of the spindle assembly checkpoint (SAC), leading to cell death”; the “centrosome clustering in cells with CA” value is reported as “inhibited centrosome clustering”.
Regarding `COc1ncc2cc3ccccc3nc2c1C#N` [CCB02], in the assay with PKD1^RC/RC mice [1] (five months treatment), the cyst formation entry is listed as “better results in comparison to the FDA-approved drug tolvaptan” and the fibrosis markers result is listed as “significant reduction in fibrosis markers”. Further, in the assay on PKD1^RC/RC mice [1] (setting [4]), the effect on cystogenesis result is “even greater effect on cystogenesis” and the “effect on renal fibrosis” value is “even greater effect on renal fibrosis”. The “normal mitotic spindle formation in cells with normal centrosome number” value in the assay on wild-type (HK2) cells is “not impacting normal mitotic spindle formation”. Further, in the assay with PKD1^RC/RC mice [3] (gavage every other day for sixty days, compared to untreated mice), the “cyst formation at eleven months” value is “reduction in cyst formation”. For the same compound, in the assay with PKD1^RC/RC mice [3] (three months post-washout), the BUN result is reported as “no increase”, the cyst re-formation result is “cysts did not reform”, the fibrosis result is on record as “fibrosis was not evident” and the serum creatinine entry was “no increase”. For the same compound, in the assay on pkd1-null (WT9-12) cells, the mitotic progression entry is given as “delay in mitotic progression”; the “spindle assembly checkpoint (SAC) and cell death of cells with CA” value was “activation of the spindle assembly checkpoint (SAC), leading to cell death”; the “centrosome clustering in cells with CA” value was “inhibited centrosome clustering”. In the assay with CPAP-tubulin interaction, the IC50 is 0.689 µM.
